Experimental findings from patent US5798247A, “Organic-chemical compound with ice-inhibitory action” (BASF Aktiengesellschaft, priority 1997, dated 1998) are described below.

The test has as its target T1, interleukin converting enzyme (ICE) (Homo sapiens, UniProt P29466).
T1 sequence (P29466 120-297 limits assumed): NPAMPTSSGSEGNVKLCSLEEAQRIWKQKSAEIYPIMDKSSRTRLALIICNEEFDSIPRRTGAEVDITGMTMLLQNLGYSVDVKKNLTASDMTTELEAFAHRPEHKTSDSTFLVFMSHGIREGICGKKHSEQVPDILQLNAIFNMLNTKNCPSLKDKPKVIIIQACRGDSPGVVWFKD
T1 sequence (P29466 317-404 limits assumed): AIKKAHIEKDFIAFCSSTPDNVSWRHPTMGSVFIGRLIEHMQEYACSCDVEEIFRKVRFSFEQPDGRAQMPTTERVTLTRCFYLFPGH
The test can be described thus: ICE inhibition (inhibition constant). Type of test: biochemical. Conditions: reversible covalent binding (thiohemiacetal linkage) to ICE.

Each structure is given as a SMILES string.

Take `O=C(c1ccccc1)c1ccccn1` [2-Benzoylpyridine]: the Ki is ~1000 nM.
